Data from patent publication US6441195B1, “Substituted sulphonylamino(thio) carbonyl compounds” (Bayer Aktiengesellschaft, priority 1995, dated 2002).

Tests used:
Assay type in all cases: in vivo
weeds = experiment: Pre-emergence test (greenhouse), activity against weeds; conditions: in words
How it was run: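 Compound formulated in acetone with alkylaryl polyglycol ether emulsifier, diluted in water, and watered onto soil about 24 h after sowing, dosed by application rate per unit area. Damage rated after three weeks as % versus untreated control (0% = no action).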

Maize = experiment: Pre-emergence test/Greenhouse, Maize; conditions: in vivo
How it was run: (§1)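 Percent damage relative to untreated control plants, scored three weeks after treatment, is the read-out (0% meaning no effect). Treatment consisted of watering the soil with an emulsified aqueous preparation roughly 24 h after seeds were sown, at constant water volume per area.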

Soya beans = experiment: Pre-emergence test/Greenhouse, Soya beans; conditions: in vivo
How it was run: as §1

Lolium = experiment: Pre-emergence test/Greenhouse, Lolium; conditions: after three weeks
How it was run: as §1

Poa = experiment: Pre-emergence test/Greenhouse, Poa; conditions: after three weeks
How it was run: as §1

Sorghum = experiment: Pre-emergence test/Greenhouse, Sorghum; conditions: after three weeks
How it was run: as §1

Ambrosia = experiment: Pre-emergence test/Greenhouse, Ambrosia; conditions: after three weeks
How it was run: as §1

Matricaria = experiment: Pre-emergence test/Greenhouse, Matricaria; conditions: after three weeks
How it was run: as §1

Solanum = experiment: Pre-emergence test/Greenhouse, Solanum; conditions: after three weeks
How it was run: as §1

SMILES | activity against weeds (weeds) | degree of damage to the plants (% damage vs untreated control), Maize (Maize) | degree of damage to the plants (% damage vs untreated control), Soya beans (Soya beans) | degree of damage to the plants (% damage vs untreated control), Lolium (Lolium; 60 g of ai./ha) | degree of damage to the plants (% damage vs untreated control), Poa (Poa; 60 g of ai./ha) | degree of damage to the plants (% damage vs untreated control), Sorghum (Sorghum; 60 g of ai./ha) | degree of damage to the plants (% damage vs untreated control), Ambrosia (Ambrosia; 60 g of ai./ha) | degree of damage to the plants (% damage vs untreated control), Matricaria (Matricaria; 60 g of ai./ha) | degree of damage to the plants (% damage vs untreated control), Solanum (Solanum; 60 g of ai./ha) | degree of damage to the plants (% damage vs untreated control), Lolium (Lolium; 250 g of ai./ha) | degree of damage to the plants (% damage vs untreated control), Poa (Poa; 250 g of ai./ha) | degree of damage to the plants (% damage vs untreated control), Sorghum (Sorghum; 250 g of ai./ha) | degree of damage to the plants (% damage vs untreated control), Ambrosia (Ambrosia; 250 g of ai./ha) | degree of damage to the plants (% damage vs untreated control), Matricaria (Matricaria; 250 g of ai./ha) | degree of damage to the plants (% damage vs untreated control), Solanum (Solanum; 250 g of ai./ha) | also measured
CSc1nn(C(=O)NS(=O)(=O)c2c(C)cccc2C(=O)OC(C)C)c(=O)n1C [Example 8] | very strong activity against weeds | 30% | 0% | 95% | 90% | 80% | 90% | 95% | 95% | – | – | – | – | – | – | –
CCCOC(=O)c1cccc(C)c1S(=O)(=O)NC(=O)n1nc(OCCC)n(C)c1=O [Example 22] | very strong activity against weeds | 20% | 10% | – | – | – | – | – | – | – | – | – | – | – | – | degree of damage to the plants (% damage vs untreated control), Lolium (Lolium; 125 g of ai./ha): 95%; degree of damage to the plants (% damage vs untreated control), Poa (Poa; 125 g of ai./ha): 95%; degree of damage to the plants (% damage vs untreated control), Sorghum (Sorghum; 125 g of ai./ha): 80%; degree of damage to the plants (% damage vs untreated control), Ambrosia (Ambrosia; 125 g of ai./ha): 95%; degree of damage to the plants (% damage vs untreated control), Matricaria (Matricaria; 125 g of ai./ha): 95%; degree of damage to the plants (% damage vs untreated control), Solanum (Solanum; 125 g of ai./ha): 95%
CCOc1nn(C(=O)NS(=O)(=O)c2c(Cl)cccc2C(=O)OC)c(=O)n1C [Example 129] | very strong activity against weeds | 10% | 10% | – | – | – | – | – | – | 95% | 95% | 90% | 60% | 90% | 95% | –
COC(=O)c1cccc(Cl)c1S(=O)(=O)NC(=O)n1nc(SC)n(C)c1=O [Example 130] | very strong activity against weeds | 10% | 0% | – | – | – | – | – | – | 95% | 95% | 80% | 95% | 95% | 95% | –
CCOC(=O)c1cccc(C)c1S(=O)(=O)NC(=O)c1noc(C)n1 [Example 10] | very strong activity against weeds | 0% | 20% | – | – | – | – | – | – | 80% | 90% | 70% | 95% | 95% | 95% | –
CCCc1nn(C(=O)[N-]S(=O)(=O)c2c(C)cccc2C(=O)OC)c(=O)n1C.[Na+] [Example 154] | very strong activity against weeds | 0% | 0% | 95% | 95% | 95% | 70% | 70% | 90% | – | – | – | – | – | – | –
Cc1cccc(C(=O)OC(C)C)c1S(=O)(=O)NC(=O)n1nc(OC(C)C)n(C)c1=O [Example 18] | very strong activity against weeds | 10% | 0% | 80% | 95% | 90% | 95% | 95% | 95% | – | – | – | – | – | – | –
